Test results: US20190029301A1, “USE OF LONG-TERM FASTING MIMICKING AS DIETARY TREATMENT FOR MULTIPLE MYELOMA AND OTHER CANCERS” (UNIVERSITY OF SOUTHERN CALIFORNIA, priority 2016, published 2019)

Legend:
[1] = Biaxin competes for the liver detoxification system that inactivates dexamethasone; cited from earlier work
multiple myeloma [2] = assay: free kappa light chain tumor marker in a multiple myeloma patient (case report); type: in vivo, human; settings: for response of free kappa light chain tumor marker / myeloma cells to the regimen: single patient, successive regimens 2006-2012 and later
[3] = cited from earlier work
multiple myeloma [4] = settings: cited from earlier work
[5] = side effects / peripheral neuropathy in the treated multiple myeloma patient; type: in vivo, human
Description: The patient had previously only used IV bortezomib, since it had been effective up to that point. Resistance to bortezomib is thought to result from overproduction of proteosomal subunits, that then require a higher concentration of drug before enough subunits are blocked to reduce the degradation of misfolded myeloma antibodies. The highest recommended dose of bortezomib is 1.3 mg/m^2, since the next higher dose of 1.7 mg/m^2 regularly produces grade 3-4 peripheral neuropathy. […] The patient reasoned that reducing the toxicity of bortezomib by using SubQ rather than IV and using the FMED to induce protective stress-resistance pathways in their neural and supporting glial cells might allow the use of “toxic” doses of bortezomib. […] The first two cycles were performed to verify whether the approach worked. […] Since the “toxic” bortezomib dose was essentially monotherapy, a different IMID was added for a third cycle in the hope that the patient's MM cells would be sensitive and one would be treating with at least two drugs. One third of patients resistant to lenalidomide respond to pomalidomide, which was thus added during the third cycle.

[6] = SubQ compared with IV bortezomib

## CC[C@H]1OC(=O)[C@H](C)[C@@H](O[C@H]2C[C@@](C)(OC)[C@@H](O)[C@H](C)O2)[C@H](C)[C@@H](O[C@@H]2O[C@H](C)C[C@H](N(C)C)[C@H]2O)[C@](C)(OC)C[C@@H](C)C(=O)[C@H](C)[C@@H](O)[C@]1(C)O [Biaxin]
[1]
  half-life of dexamethasone: increases

## CC(C)C[C@H](NC(=O)[C@H](Cc1ccccc1)NC(=O)c1cnccn1)B(O)O [bortezomib]
Multiple myeloma [2]; SubQ bortezomib at "toxic" dose 1.7 mg/m^2 combined with FMED, FIG. 3
  tumor markers response: rapid drop
Multiple myeloma [2]; subcutaneous bortezomib 1.7 mg/m^2 with FMED, bortezomib-resistant patient
  bortezomib sensitivity: restore bortezomib sensitivity
[3]; [6]
  side effects of SubQ versus IV administration: reduced side effects
[3]; dose of 1.7 mg/m^2
  peripheral neuropathy grade: 3-4
Multiple myeloma [4]; [6]
  effectiveness of SubQ versus IV administration: as effective as IV bortezomib
[5]; subcutaneous bortezomib 1.7 mg/m^2 with FMED
  side-effects: minimal side-effects
[5]; three cycles of SubQ "toxic" bortezomib + FMED (pomalidomide added in third cycle)
  peripheral neuropathy progression: only minor progression

## CC(C)C[C@H](NC(=O)[C@H](CCc1ccccc1)NC(=O)CN1CCOCC1)C(=O)N[C@@H](Cc1ccccc1)C(=O)N[C@@H](CC(C)C)C(=O)[C@@]1(C)CO1 [carfilzomib]
Multiple myeloma [2]
  response of free kappa light chain tumor marker / myeloma cells to the regimen: ineffective

## Nc1cccc2c1C(=O)N(C1CCC(=O)NC1=O)C2=O (centres unmarked) [pomalidomide]
Multiple myeloma [4]; lenalidomide-resistant patients
  fraction of patients resistant to lenalidomide that respond: One third

## Nc1cccc2c1CN(C1CCC(=O)NC1=O)C2=O (centres unmarked) [revlimid, lenalidomide]
Multiple myeloma [2]
  response of free kappa light chain tumor marker / myeloma cells to the regimen: developed resistance
